Patent publication US20220402873A1, “NOVEL P62 LIGAND COMPOUND, AND COMPOSITION CONTAINING SAME FOR PREVENTING, AMELIORATING, OR TREATING PROTEINOPATHIES” (AUTOTAC INC., priority 2019, published 2022)

Assays:
Type in all cases: cell-based
p62 protein [1] = target: T1, p62 protein (Homo sapiens, UniProt Q13501); test: Oligomerization activity of p62 protein by immunoblotting; set-up: endogenous in cells; conditions: HEK293 cell line lysate treated with test compounds for 2 hours at room temperature
T1 sequence (Q13501 whole entry): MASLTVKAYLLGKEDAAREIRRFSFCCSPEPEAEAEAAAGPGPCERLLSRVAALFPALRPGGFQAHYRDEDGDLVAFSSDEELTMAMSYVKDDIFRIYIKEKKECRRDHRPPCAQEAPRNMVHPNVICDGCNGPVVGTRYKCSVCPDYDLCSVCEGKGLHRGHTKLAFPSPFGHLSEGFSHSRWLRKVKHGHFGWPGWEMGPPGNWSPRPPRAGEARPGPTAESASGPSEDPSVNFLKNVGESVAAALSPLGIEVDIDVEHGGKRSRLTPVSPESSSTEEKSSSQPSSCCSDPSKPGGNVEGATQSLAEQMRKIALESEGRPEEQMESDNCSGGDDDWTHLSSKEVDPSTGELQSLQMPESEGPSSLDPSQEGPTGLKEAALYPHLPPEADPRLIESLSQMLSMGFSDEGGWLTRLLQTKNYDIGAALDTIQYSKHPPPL
From the text: In order to evaluate the oligomerization activity efficacy of p62 protein of the compounds (Examples 1-20), HEK293 cell line, which is human embryonic kidney-derived cell, was collected. As representative compounds of the present compounds, the compounds of Examples 1-20 (Example 1 (ATB10048), Example 2 (ATB10047), Example 3 (ATB10049), Example 4 (ATB10051), Example 5 (ATB10050), Example 6 (ATB10056), Example 7 (ATB10052), Example 8 (ATB10057), Example 9 (ATB10060), Example 10 (ATB10072), Example 11 (ATB10075), Example 12 (ATB10078), Example 13 (ATB10079), Example 14 (ATB10080), Example 15 (ATB10081), Example 16 (ATB10087), Example 17 (ATB10096), Example 18 (ATB10097), Example 19 (ATB10099) and Example 20 (ATB10100)) were selected, and in order to measure the activation and oligomerization of the p62 protein in cells according to the treatment with these selected representative compounds, each cell was dispensed into a 100 phi dish. The cells were collected after additional culture for 24 hours so that the cells were completely attached to the surface of the plate, and 100 ul of lysis buffer (20 mM Tris (pH 7.4), 150 mM NaCl, 1% Triton X-100, 2 mM NaF, 2 mM EDTA, 2 mM beta-glycerophosphate, 5 mM sodium orthovanadate, 1 mM PMSF, leupeptin, aproteinin) was injected to each sample, and the cells were lysed. Based on the measured total protein concentration, each sample was treated with the test compounds for 2 hours at room temperature, and then a sample buffer was added and reacted at 95° C. for 10 minutes. 25 ul was taken from the samples after the reaction was completed and dispensed into each well of an acrylamide gel, and immunoblotting was performed.

p62 protein [2] = target: T1, p62 protein; test: Activity of p62 protein and delivery to autophagosome by immunofluorescence staining (p62, LC3-GFP) and confocal microscopy; set-up: endogenous in cells; host or cells: HeLa; conditions: Hela-LC3-GFP cell line, 5 uM, 24 hours
Experimental: Immunofluorescence staining was performed using p62 and FK2 marker to determine the level of activity of p62 protein of the compounds (Examples 1-20). In order to determine the level of p62 activity and autophagy activity by the novel p62 ligand and its isomers in cultured cells, Hela-LC3-GFP cell line derived from cervical cancer patients was treated with the novel p62 ligand compounds (Example 2 (ATB10047), Example 3 (ATB10049), Example 4 (ATB10051), Example 6 (ATB10056), Example 9 (ATB10060), Example 12 (ATB10078), Example 16 (ATB10087) and Example (ATB10097)) and cultured. Then, the level of puncta expression and location of LC3-GFP, which is an essential autophagosome marker for macroautophagy, and the puncta local co-existence of p62 were observed.
For immunofluorescence staining, a cover glass was placed on a 24-well plate, cells were dispensed and cultured for 24 hours, and then treated with 5 uM of the novel p62 ligand according to the present invention. The cells were further cultured for an additional 24 hours for the action of the compound, the medium was removed, and the cells were fixed using formaldehyde at room temperature. In order to prevent non-specific staining, the cells were reacted with a blocking solution at room temperature for 1 hour, and then the LC3 antibody diluted at a certain ratio was treated with the blocking solution and then reacted at room temperature for 1 hour. After the antibody-treated cells were washed 3 times with PBS, the goat-derived secondary antibody was diluted at a certain ratio using the blocking solution, and then reacted at room temperature for 30 minutes. The cells were washed again with PBS three times and subjected to DAPI staining for intracellular nuclear staining, and then the level of expression of p62 or LC3, intracellular puncta formation, and intracellular coexistence level were observed by a confocal microscope.

p62 protein [3] = target: T1, p62 protein; test: Activity of p62 protein and delivery of ubiquitinated substrate proteins to autophagy by immunofluorescence staining (p62, FK2) and confocal microscopy; set-up: endogenous in cells; host or cells: HeLa; conditions: Hela cell line, 1 uM, 6 hours
Experimental: Immunofluorescence staining was performed using p62 and FK2 as markers to determine the level of the activity of p62 protein of the compounds (Examples 1-20). In order to determine the level of p62 activity and autophagy activity by the novel p62 ligand and its isomers in the cultured cells, the Hela cell line derived from cervical cancer patients was treated with a novel p62 ligand compound (Example 1 (ATB10048), Example 2 (ATB10047), Example 3 (ATB10049), Example 5 (ATB10050), Example 4 (ATB10051), Example 7 (ATB10052), Example 6 (ATB10056), Example 8 (ATB10057), Example 9 (ATB10060), Example 10 (ATB10072), Example 11 (ATB10075), Example 12 (ATB10078), […], Example 14 (ATB10080), Example 15 (ATB10081), Example 16 (ATB10087)), Example 17 (ATB0096), Example 18 (ATB10097), Example 19 (ATB10099) and Example 20 (ATB10100)) and cultured, and then the level of puncta expression and location of FK2, which was a marker of the protein to be delivered to and degraded in the autophagy through the mediation of the intracellular ubiquitinated p62, and the puncta local co-existence with p62 were observed.
For immunofluorescence staining, a cover glass was placed on a 24-well plate, cells were dispensed and cultured for 24 hours, and then 1 uM of the novel p62 ligand according to the present invention was treated. After culturing for an additional 6 hours for the action of the compound, the medium was removed, and the cells were fixed using formaldehyde at room temperature. In order to prevent non-specific staining, the cells were reacted with a blocking solution at room temperature for 1 hour, and then the LC3 antibody diluted at a certain ratio was treated with a blocking solution and then reacted at room temperature for 1 hour. After the antibody-treated cells were washed 3 times with PBS, the goat-derived secondary antibody was diluted at a certain ratio using the blocking solution, and then reacted at room temperature for 30 minutes. After further washing with PBS three times, and DAPI staining was performed for intracellular nuclear staining. Then, the level of expression of p62 or FK2, the level of intracellular puncta formation, and the level of coexistence in the cells were observed by a confocal microscope.

Row | Structure (SMILES) | p62 protein oligomerization activity (immunoblot, FIGS. 2a to 2d) (p62 protein [1]) | targeting of activated, oligomerized p62 protein to the autophagosome (FIG. 4) (p62 protein [2]) | delivery of ubiquitinated proteins marked with FK2 to autophagosome mediated by p62 (FIGS. 3a to 3d) (p62 protein [3])
1 | NC(=O)NCc1ccc(OCc2ccccc2)cn1 [Example 6, 1-((5-(benzyloxy)pyridin-2-yl)methyl)urea] | increasing the p62 protein oligomerization activity | show the efficacy of targeting them to the autophagosome | show the efficacy of delivering the proteins to be delivered to and degraded by autophagosome
2 | OCCNCc1cccc(OCc2ccccc2)n1 [Example 2, 2-(((6-(benzyloxy)pyridin-2-yl)methyl)amino)ethan-1-ol] | increasing the p62 protein oligomerization activity | show the efficacy of targeting them to the autophagosome | show the efficacy of delivering the proteins to be delivered to and degraded by autophagosome
3 | OCCNC[C@@H](O)CNc1cccc(OCc2ccccc2)n1 [Example 15, (R)-1-((6-(benzyloxy)pyridin-2-yl)amino)-3-((2-hydroxyethyl)amino)propan-2-ol] | increasing the p62 protein oligomerization activity | – | show the efficacy of delivering the proteins to be delivered to and degraded by autophagosome
4 | COc1ccc(OC[C@H](O)CNCCO)nc1OCc1ccccc1 [Example 11, (R)-1-((6-(benzyloxy)-5-methoxypyridin-2-yl)oxy)-3-((2-hydroxyethyl)amino)propan-2-ol] | increasing the p62 protein oligomerization activity | – | show the efficacy of delivering the proteins to be delivered to and degraded by autophagosome
5 | O=C(CO)NCc1cc(OCc2ccccc2)c(OCc2ccccc2)cn1 [Example 7, N-((4,5-bis(benzyloxy)pyridin-2-yl)methyl)-2-hydroxyacetamide] | increasing the p62 protein oligomerization activity | – | show the efficacy of delivering the proteins to be delivered to and degraded by autophagosome
6 | OCCNC[C@@H](O)COc1cc(OCc2ccccc2)ccn1 [Example 10, (R)-1-((4-(benzyloxy)pyridin-2-yl)oxy)-3-((2-hydroxyethyl)amino)propan-2-ol] | increasing the p62 protein oligomerization activity | – | show the efficacy of delivering the proteins to be delivered to and degraded by autophagosome
7 | O=C(O)CNCc1ccc(OCCc2ccccc2)s1 [Example 20, ((5-phenethoxythiophen-2-yl)methyl)glycine] | increasing the p62 protein oligomerization activity | – | show the efficacy of delivering the proteins to be delivered to and degraded by autophagosome
8 | OCCNCc1cc(OCc2ccccc2)c(OCc2ccccc2)cn1 [Example 8, 2-(((4,5-bis(benzyloxy)pyridin-2-yl)methyl)amino)ethan-1-ol] | increasing the p62 protein oligomerization activity | – | show the efficacy of delivering the proteins to be delivered to and degraded by autophagosome
9 | O=C(CO)NCc1cccc(OCc2ccccc2)n1 [Example 1] | increasing the p62 protein oligomerization activity | – | show the efficacy of delivering the proteins to be delivered to and degraded by autophagosome
10 | OCCNC[C@@H](O)COc1cncc(OCc2ccccc2)c1 [Example 13, (R)-1-((5-(benzyloxy)pyridin-3-yl)oxy)-3-((2-hydroxyethyl)amino)propan-2-ol] | increasing the p62 protein oligomerization activity | – | show the efficacy of delivering the proteins to be delivered to and degraded by autophagosome
11 | OCCNCc1ccc(OCc2ccccc2)s1 [Example 17, 2-(((5-(benzyloxy)thiophen-2-yl)methyl)amino)ethan-1-ol] | increasing the p62 protein oligomerization activity | – | show the efficacy of delivering the proteins to be delivered to and degraded by autophagosome
12 | OCCNC[C@@H](O)COc1cccc(NCc2ccccc2)n1 [Example 14, (R)-1-((6-(benzylamino)pyridin-2-yl)oxy)-3-((2-hydroxyethyl)amino)propan-2-ol] | increasing the p62 protein oligomerization activity | – | show the efficacy of delivering the proteins to be delivered to and degraded by autophagosome
13 | O=C(CO)NCc1ccc(CCc2ccccc2)o1 [Example 19, 2-hydroxy-N-((5-phenethylfuran-2-yl)methyl) acetamide] | increasing the p62 protein oligomerization activity | – | show the efficacy of delivering the proteins to be delivered to and degraded by autophagosome
14 | OCCNCc1cc(OCc2ccccc2)ccn1 [Example 5, 2-(((4-(benzyloxy)pyridin-2-yl)methyl)amino)ethan-1-ol] | increasing the p62 protein oligomerization activity | – | show the efficacy of delivering the proteins to be delivered to and degraded by autophagosome
